Results from the NIST ThermoML archive (doi:10.1021/je8004112).
Numbers after ± are expanded uncertainties.

Experiment: xn = mol fraction of the nth substance listed
Settings: Ring tensiometer

OC1CCCCC1 [cyclohexanol] + CCCCCCCCCCCC
surface tension liquid-gas [mN/m]
Settings	x2 = 0	x2 = 0.006	x2 = 0.009	x2 = 0.011	x2 = 0.022	x2 = 0.031	x2 = 0.046	x2 = 0.075
293.15 K	33.15 ± 0.49	31.7 ± 0.66	31.11 ± 0.61	30.68 ± 0.49	30.22 ± 0.46	29.81 ± 0.46	29.14 ± 0.46	27.16 ± 0.44
298.15 K	32.74 ± 0.49	31.23 ± 0.66	30.71 ± 0.58	30.32 ± 0.48	29.85 ± 0.46	29.37 ± 0.45	28.74 ± 0.45	26.8 ± 0.43
303.15 K	32.35 ± 0.48	30.78 ± 0.66	30.28 ± 0.56	29.99 ± 0.47	29.46 ± 0.46	28.87 ± 0.45	28.35 ± 0.45	26.47 ± 0.43
308.15 K	31.91 ± 0.48	30.35 ± 0.65	29.88 ± 0.55	29.61 ± 0.47	29.08 ± 0.46	28.44 ± 0.44	27.98 ± 0.44	26.1 ± 0.42
313.15 K	31.58 ± 0.47	29.92 ± 0.66	29.49 ± 0.53	29.25 ± 0.46	28.72 ± 0.45	28.01 ± 0.44	27.58 ± 0.44	25.76 ± 0.42
318.15 K	31.13 ± 0.47	29.49 ± 0.66	29.07 ± 0.52	28.88 ± 0.46	28.35 ± 0.45	27.57 ± 0.43	27.21 ± 0.43	25.44 ± 0.41
323.15 K	30.78 ± 0.46	29 ± 0.65	28.69 ± 0.48	28.5 ± 0.5	27.99 ± 0.45	27.13 ± 0.43	26.83 ± 0.43	25.09 ± 0.41

CCCCCC [hexane] + OC1CCCCC1
x1 = 1
Settings	surface tension liquid-gas [mN/m]
293.15 K	18.56 ± 0.31
298.15 K	18.03 ± 0.3
303.15 K	17.44 ± 0.3
308.15 K	16.92 ± 0.29
313.15 K	16.38 ± 0.28

OC1CCCCC1 [cyclohexanol] + CCCCCCC
surface tension liquid-gas [mN/m]
Settings	x2 = 0	x2 = 0.011	x2 = 0.014	x2 = 0.02	x2 = 0.025	x2 = 0.033	x2 = 0.037	x2 = 0.061
293.15 K	33.15 ± 0.49	32.84 ± 0.49	32.69 ± 0.49	32.56 ± 0.51	31.8 ± 0.5	31.53 ± 0.48	31.38 ± 0.48	29.87 ± 0.47
298.15 K	32.74 ± 0.49	32.47 ± 0.49	32.29 ± 0.48	32.2 ± 0.5	31.48 ± 0.49	31.17 ± 0.47	31.01 ± 0.47	29.54 ± 0.46
303.15 K	32.35 ± 0.48	32.11 ± 0.48	31.92 ± 0.48	31.8 ± 0.5	31.08 ± 0.49	30.82 ± 0.47	30.56 ± 0.48	29.2 ± 0.46
308.15 K	31.91 ± 0.48	31.78 ± 0.48	31.55 ± 0.48	31.39 ± 0.49	30.74 ± 0.48	30.44 ± 0.47	30.14 ± 0.48	28.83 ± 0.45
313.15 K	31.58 ± 0.47	31.43 ± 0.47	31.23 ± 0.48	31.01 ± 0.49	30.41 ± 0.48	30.1 ± 0.46	29.77 ± 0.48	28.54 ± 0.45
318.15 K	31.13 ± 0.47	31.07 ± 0.47	30.85 ± 0.48	30.57 ± 0.48	30.07 ± 0.47	29.76 ± 0.46	29.39 ± 0.48	28.23 ± 0.44
323.15 K	30.78 ± 0.46	30.7 ± 0.46	30.45 ± 0.47	30.16 ± 0.48	29.7 ± 0.46	29.43 ± 0.46	28.99 ± 0.49	27.87 ± 0.44

CCCCCCCCC [nonane] + OC1CCCCC1
x1 = 1
Settings	surface tension liquid-gas [mN/m]
293.15 K	23.04 ± 0.37
298.15 K	22.49 ± 0.36
303.15 K	22.04 ± 0.35
308.15 K	21.49 ± 0.35
313.15 K	20.94 ± 0.34
318.15 K	20.47 ± 0.33
323.15 K	19.98 ± 0.33

CCCCCCCCCCCC [dodecane] + OC1CCCCC1
x1 = 1
Settings	surface tension liquid-gas [mN/m]
293.15 K	24.28 ± 0.38
298.15 K	23.84 ± 0.38
303.15 K	23.38 ± 0.37
308.15 K	22.98 ± 0.36
313.15 K	22.56 ± 0.36
318.15 K	22.14 ± 0.35
323.15 K	21.71 ± 0.35
